Activity, IC50 and MIC data for three molecules are collected here from ChEMBL document CHEMBL2146428, “Luminmycins A-C, cryptic natural products from Photorhabdus luminescens identified by heterologous expression in Escherichia coli” (J Nat Prod, 2012).

In one assay the test system is Candida albicans. The assay is described as follows: Antifungal activity against Candida albicans after 16 hrs by serial dilution method. The assay is classed as functional.
In assay [1] the test system is HCT-116. In words: Cytotoxicity against human HCT116 cells assessed as cell viability at 100 ug/mL after 5 days by MTT assay relative to control. Format: functional, cell-based. (In general: Tetrazolium dyes change colour on reduction, which living cells bring about.)
The test system of assay [2] is HCT-116. The assay is described as follows: Cytotoxicity against human HCT116 cells assessed as cell viability after 5 days by MTT assay relative to control. The assay is classed as functional, cell-based. The conditions noted are these: HCT-116, 120 h.

Each structure is given as a SMILES string. In brackets after ≈: the same amount, converted by molar mass. Activity calls are given as the source filed them. The calls are words filed in the database; no cut-off is given here.

`CCCCCCC/C=C/C=C/C(=O)N[C@H](C(=O)N[C@@H](CCCCN)C(=O)N[C@@H](C)C(O)CC(=O)O)[C@@H](C)O` (stereo partly specified): the outcome in the assay on Candida albicans and with HCT-116 [1] was inactive.
As to `CCCCCCC/C=C/C=C/C(=O)N[C@H](C(=O)N[C@H]1CCCCNC(=O)/C=C/[C@H](C)NC1=O)[C@@H](C)O` [LUMINMYCIN A], the outcome in the assay with Candida albicans was inactive. In addition, the IC50 (usually the concentration at which inhibition is half-maximal) in the assay on HCT-116 [2] stood at 91.8 nM.
Consider `CCCCCCC/C=C/C=C/C(=O)N[C@H](C(=O)N[C@H]1C[C@@H](O)CCNC(=O)/C=C/[C@H](C)NC1=O)[C@@H](C)O` [GLIDOBACTIN A], for which inhibition of growth with Candida albicans (MIC) required 2 µg/mL (≈ 3.84 µM). In the assay on HCT-116 [2], the half-maximal inhibitory concentration (IC50) is 33.3 nM.
